pKi: −log10 of the molar value.
test system: Human platelet aggregation caused by ADP; experiment: Inhibition of ADP-induced platelet aggregation (Mimic-human PRP); type: cell-based; conditions: 20 μM ADP, human platelet concentrate diluted with PPP, absorption at 595 nm
Protocol: Platelet Preparation for Aggregation Studies
Human platelet aggregation reaction test is a functional experiment method to verify whether a test compound is an agonist or an antagonist to ADP receptor. […] The platelet product isolated from whole blood was purchased from Chung-Nam blood center (Dae-joen, South Korea). The platelet was isolated from 400 mL of whole blood containing 56 mL of CPDA-1 anticoagulant. To isolate the platelet product, 400 mL of whole blood was centrifuged at 260×g for 5 minutes, and then obtained PRP (platelet rich plasma) was secondary centrifuged at 370×g for 6 minutes. Platelet pellet (10^9/mL) was suspended with 45 mL of plasma and then agitated over 1 hour at 22° C. blood reservoir to stabilize it. The stabilized platelet product was used in the experiment within 24 hours. PCs (Platelet Concentrates) were gently transferred to a new 50 ml-falcon tube. The number of platelet was counted by using animal blood counter (ABC Vet, ABX diagnostics, France). The volume of 30 mL of PCs collected from same donor was centrifuged at 1500 g for 10 min at room temperature to prepare platelet-poor plasma (PPP). The platelet count was adjusted to platelet number of 3˜4×10^8/mL by diluting with PPP.
Evaluation on Inhibitory Effect of ADP-Induced Aggregation
Inhibition of ADP-induced aggregation was determined in 96-well flat-bottom plates (Costar, USA) at room temperature. The diluted platelet was aliquoted into each well of 96 well plate in the volume of 188 μl. […] The platelet including test compounds was immediately mixed on a shaker at 1050 rpm for 1 min and incubated at room temperature for 20 min. Then, 10 μL volume of 400 μM ADP was added: the final concentration of 20 μM ADP in the total reaction volume of 0.2 mL/well. After shaking of the plate at room temperature for 3 min, the absorption of the samples was determined at 595 nm using a microtiter plate reader (Softmax, Molecular Devices).
A dose-dependent curve on serial dilutions of ADP was accomplished by adding vehicle (DMSO) instead of antagonists in order to calculate EC50 of ADP. Inhibition of aggregation was calculated from the increase of absorption at 595 nm at 3 min of the reaction incubation, compared to results of absorption between the 0 and 20 μM ADP control without antagonists. Sigmoidal dose-response curves and Ki were derived by non-linear regression analysis using the Prism software (GraphPad, San Diego Calif.).

In order of rising pKi:
1. CCCc1cc2c(N3CCn4c(nnc4C(F)(F)F)C3)nc(N3CCCC(C(=O)NC)C3)nc2s1 (stereo not shown) [Example 1-93, 1-[6-Propyl-4-(3-trifluoromethyl-5,6-dihydro-8H-[1,2,4]triazolo[4,3-a]pyrazin-7-yl)-thieno[2,3-d]pyrimidin-2-yl]-piperidine-3-carboxylic acid methylamide]  6.69
2. CCCc1cc2c(N3CCn4c(nnc4C(F)(F)F)C3)nc(OCCNCC(=O)OCC)nc2s1 [Example 3-54, {2-[6-Propyl-4-(3-trifluoromethyl-5,6-dihydro-8H-[1,2,4]triazolo[4,3-a]pyrazin-7-yl)-thieno[2,3-d]pyrimidin-2-yloxy]-ethylamino}-acetic acid ethyl ester]  6.69
3. CCCc1cc2c(N3CCn4c(nnc4C(F)(F)F)C3)nc(N3C=CC4=NCCNC4=C3)nc2s1 [Example 1-133, 6-[6-Propyl-4-(3-trifluoromethyl-5,6-dihydro-8H-[1,2,4]triazolo[4,3-a]pyrazin-7-yl)thieno[2,3-d]pyrimidin-2-yl]-2,3,4,6-tetrahydro-pyrido[3,4-b]pyrazine]  6.84
4. CCCc1cc2c(N3CCn4c(nnc4C(F)(F)F)C3)nc(N(CCO)CC(=O)O)nc2s1 [Example 1-118, {(2-Hydroxy-ethyl)-[6-propyl-4-(3-trifluoromethyl-5,6-dihydro-8H-[1,2,4]triazolo[4,3-a]pyrazin-7-yl)-thieno[2,3-d]pyrimidin-2-yl]-amino}-acetic acid]  7.47
5. CCCc1cc2c(N3CCn4c(nnc4C(F)(F)F)C3)nc(N3CCCC(C(N)=O)C3)nc2s1 (stereo not shown) [Example 1-92, 1-[6-Propyl-4-(3-trifluoromethyl-5,6-dihydro-8H-[1,2,4]triazolo[4,3-a]pyrazin-7-yl)-thieno[2,3-d]pyrimidin-2-yl]-piperidine-3-carboxylic acid amide]  7.52
6. CCCc1cc2c(N3CCn4c(nnc4C(F)(F)F)C3)nc(N3CCCC(C(=O)N(C)C)C3)nc2s1 (stereo not shown) [Example 1-94, 1-[6-Propyl-4-(3-trifluoromethyl-5,6-dihydro-8H-[1,2,4]triazolo[4,3-a]pyrazin-7-yl)-thieno[2,3-d]pyrimidin-2-yl]-piperidine-3-carboxylic acid dimethylamide]  7.54
7. CCCc1cc2c(N3CCn4c(nnc4C(F)(F)F)C3)nc(N3CC[C@H](NC(=O)C(C)(C)O)C3)nc2s1 [Example 1-107, 2-Hydroxy-2-methyl-N-{(S)-1-[6-propyl-4-(3-trifluoromethyl-5,6-dihydro-8H-[1,2,4]triazolo[4,3-a]pyrazin-7-yl)-thieno[2,3-d]pyrimidin-2-yl]-pyrrolidin-3-yl}-propionamide]  7.72
8. CCCc1cc2c(N3CCn4c(nnc4C(F)(F)F)C3)nc(N3CC[C@H](NC(=O)Cc4ccccn4)C3)nc2s1 [Example 1-121, N-{(S)-1-[6-Propyl-4-(3-trifluoromethyl-5,6-dihydro-8H-[1,2,4]triazolo[4,3-a]pyrazin-7-yl)-thieno[2,3-d]pyrimidin-2-yl]-pyrrolidin-3-yl}-2-pyridin-2-yl-acetamide]  7.72
9. CCCc1cc2c(N3CCn4c(nnc4C(F)(F)F)C3)nc(N3CC[C@H](C(=O)N(C)C)C3)nc2s1 [Example 1-88, (S)-1-[6-Propyl-4-(3-trifluoromethyl-5,6-dihydro-8H-[1,2,4]triazolo[4,3-a]pyrazin-7-yl)-thieno[2,3-d]pyrimidin-2-yl]-pyrrolidine-3-carboxylic acid dimethylamide]  7.80
10. CCCc1cc2c(N3CCn4c(nnc4C(F)(F)F)C3)nc(N3CC[C@H](NC(=O)C(F)(F)F)C3)nc2s1 [Example 1-106, 2,2,2-Trifluoro-N-{(S)-1-[6-propyl-4-(3-trifluoromethyl-5,6-dihydro-8H-[1,2,4]triazolo[4,3-a]pyrazin-7-yl)-thieno[2,3-d]pyrimidin-2-yl]-pyrrolidin-3-yl}-acetamide]  7.80
11. CCCc1cc2c(N3CCn4c(nnc4C(F)(F)F)C3)nc(N3CCCC(C(=O)NO)C3)nc2s1 (stereo not shown) [Example 1-95, 1-[6-Propyl-4-(3-trifluoromethyl-5,6-dihydro-8H-[1,2,4]triazolo[4,3-a]pyrazin-7-yl)-thieno[2,3-d]pyrimidin-2-yl]-piperidine-3-carboxylic acid hydroxyamide]  7.96
12. CCCc1cc2c(N3CCn4c(nnc4C(F)(F)F)C3)nc(N3CC[C@H](NC(=O)C4CC4)C3)nc2s1 [Example 1-108, Cyclopropanecarboxylic Acid {(S)-1-[6-propyl-4-(3-trifluoromethyl-5,6-dihydro-8H-[1,2,4]triazolo[4,3-a]pyrazin-7-yl)-thieno[2,3-d]pyrimidin-2-yl]-pyrrolidin-3-yl}-amide]  8.03
13. CCCc1cc2c(N3CCn4c(nnc4C(F)(F)F)C3)nc(N3CC[C@H](NC(=O)COC)C3)nc2s1 [Example 1-102, 2-Methoxy-N-{(S)-1-[6-propyl-4-(3-trifluoromethyl-5,6-dihydro-8H-[1,2,4]triazolo[4,3-a]pyrazin-7-yl)-thieno[2,3-d]pyrimidin-2-yl]-pyrrolidin-3-yl}-acetamide]  8.07
14. CCCc1cc2c(N3CCn4c(nnc4C(F)(F)F)C3)nc(N3CC[C@H](NC(=O)Cc4csc(N)n4)C3)nc2s1 [Example 1-119, 2-(2-Amino-thiazol-4-yl)-N-{(S)-1-[6-propyl-4-(3-trifluoromethyl-5,6-dihydro-8H-[1,2,4]triazolo[4,3-a]pyrazin-7-yl)-thieno[2,3-d]pyrimidin-2-yl]-pyrrolidin-3-yl}-acetamide]  8.14
15. CCCc1cc2c(N3CCn4c(nnc4C(F)(F)F)C3)nc(N3CC[C@H](NC(=O)CO)C3)nc2s1 [Example 1-100, 2-Hydroxy-N-{(S)-1-[6-propyl-4-(3-trifluoromethyl-5,6-dihydro-8H-[1,2,4]triazolo[4,3-a]pyrazin-7-yl)-thieno[2,3-d]pyrimidin-2-yl]-pyrrolidin-3-yl}-acetamide]  8.22
16. CCCc1cc2c(N3CCn4c(nnc4C(F)(F)F)C3)nc(N3CC[C@H](NC(C)=O)C3)nc2s1 [Example 1-105, N-{(S)-1-[6-Propyl-4-(3-trifluoromethyl-5,6-dihydro-8H-[1,2,4]triazolo[4,3-a]pyrazin-7-yl)-thieno[2,3-d]pyrimidin-2-yl]-pyrrolidin-3-yl}-acetamide]  8.36
17. CCCc1cc2c(N3CCn4c(nnc4C(F)(F)F)C3)nc(N3CCS(=O)(=O)CC3)nc2s1 [Example 1-124, 7-[2-(1,1-Dioxo-1lambda*6*-thiomorpholin-4-yl)-6-propyl-thieno[2,3-d]pyrimidin-4-yl]-3-trifluoromethyl-5,6,7,8-tetrahydro-[1,2,4]triazolo[4,3-a]pyrazine]  8.41
18. CCCc1cc2c(N3CCn4c(nnc4C(F)(F)F)C3)nc(N3CC(N)C(O)C3)nc2s1 (stereo not shown) [Example 1-114, 4-Amino-1-[6-propyl-4-(3-trifluoromethyl-5,6-dihydro-8H-[1,2,4]triazolo[4,3-a]pyrazin-7-yl)-thieno[2,3-d]pyrimidin-2-yl]-pyrrolidin-3-ol]  8.42
19. CCCc1cc2c(N3CCn4c(nnc4C(F)(F)F)C3)nc(N3CC[C@H](NC(=O)CN)C3)nc2s1 [Example 1-101, 2-Amino-N-{(S)-1-[6-propyl-4-(3-trifluoromethyl-5,6-dihydro-8H-[1,2,4]triazolo[4,3-a]pyrazin-7-yl)-thieno[2,3-d]pyrimidin-2-yl]-pyrrolidin-3-yl}-acetamide]  8.46

Reference: patent US20110166121A1 (LG LIFE SCIENCES LTD., priority 2008, published 2011)
